Reference: US20080249168A1, “Pharmaceutical composition for gout” (priority 2007, published 2008)
Entries after “also recorded” stand apart in the source; their conditions may differ.

Legend:
normal kunmin mice = assay: Influence of L-carnitine on serum uric acid level in normal Kunmin mouse; format: in vivo; conditions: 300 mg/kg
Method: (§1) Fifty healthy kunmin Mouse (weight of 18-22 grams, male) were randomly divided into 5 groups, which are positive control group, negative control group, and small (250 mg/kg), medium (500 mg/kg) and large (1000 mg/kg) doses of 1-carnitine groups. The solvent for all solutions is 0.5% of sodium carboxymethyl cellulose (CMC—Na), with peritoneal injection in dose of 0.1 ml/10 g for all animals. For […], same dose of 0.5% of CMC—Na solution was injected. One hour after injection of inducer, blood samples were taken from eyeball, stet at room temperature for about one hour, centrifugation at 4000 r.p.m for 10 mins, supernatant was transferred to fresh tube for biochemical test of serum uric acid. Thirty healthy kunmin mouse (weight of 18-22 grams, male) were randomly divided into 3 groups, which are positive control group, negative control group, and 1-carnitine (300 mg/k) group. Others method was same as example 1.

[1] = system: hyperuricemia model of Kunmin mouse; assay: Influence of l-carnitine on serum uric acid in hyperuricemia model of Kunmin mouse (oteracil potassium as inducer); format: in vivo; conditions: for serum uric acid value (X ± S): peritoneal injection, blood one hour after injection of inducer, P < 0.01 vs negative control
Method: as §1, with “acid.” for “acid. Thirty healthy kunmin mouse (weight of 18-22 grams, male) were randomly divided into 3 groups, which are positive control group, negative control group, and 1-carnitine (300 mg/k) group. Others method was same as example 1.”
The efficacy of the composition described in the present invention is clearly shown in Example 1, where uricase inhibitor oteracil potassium is used as model inducer to induce hyperuricemia in Kunmin mouse, and administered Levocarnitine to observe novel pharmacological effect on the model.

C[N+](C)(C)C[C@H](O)CC(=O)[O-] [L-Carnitine, Levocarnitine (L-carnitine)]
effect on uric acid level (in words) (normal kunmin mice): no effect on uric acid level
serum uric acid value (X ± S) (normal kunmin mice; P > 0.05 vs normal positive control group): 76.9 ± 30.77
effect on uric acid level (in words) (normal kunmin mice; listed as 1-carnitine): not affecting uric acid level
serum uric acid value (X ± S) ([1]; 250 mg/kg (small dose)): 140.6 ± 51.55
serum uric acid value (X ± S) ([1]; 500 mg/kg (medium dose)): 130.1 ± 34.8
serum uric acid value (X ± S) ([1]; 1000 mg/kg (large dose)): 131.7 ± 24.79
effect on serum uric acid level (in words) ([1]; dose 250-1000 mg/kg): reduced serum uric acid level of model animal group significantly; also recorded: reduced the uric acid level significantly
